Measured values: ChEMBL document CHEMBL1159202, “A furanoid labdane diterpene from Potamogeton nodosus” (1998)

What was measured:
Format in all cases: functional
[1] = test system: Bacillus cereus; experiment: Antimicrobial activity against Bacillus cereus by disk diffusion method
[2] = test system: Bacillus subtilis; experiment: Antimicrobial activity against Bacillus subtilis by disk diffusion method
[3] = test system: Shigella boydii; experiment: Antimicrobial activity against Shigella boydii by disk diffusion method
[4] = test system: Shigella dysenteriae; experiment: Antimicrobial activity against Shigella shigae by disk diffusion method
[5] = test system: Shigella sonnei; experiment: Antimicrobial activity against Shigella sonnei by disk diffusion method
[6] = test system: Staphylococcus aureus; experiment: Antimicrobial activity against Staphylococcus aureus by disk diffusion method
[7] = test system: Enterococcus faecalis; experiment: Antimicrobial activity against sStreptococcus faecalis by disk diffusion method

Row | Compound | inhibition zone (IZ) [1] [mm] | inhibition zone (IZ) [2] [mm] | inhibition zone (IZ) [3] [mm] | inhibition zone (IZ) [4] [mm] | inhibition zone (IZ) [5] [mm] | inhibition zone (IZ) [6] [mm] | inhibition zone (IZ) [7] [mm]
1 | C=C1CC[C@H]2[C@@]3(C)CCC[C@]2(C(=O)OC3)[C@H]1CC(=O)c1ccoc1 | 13 | 16 | 8 | 12 | 10 | 14 | 12
2 | C[C@H]1c2cccc(O)c2C(=O)C2=C(O)[C@]3(O)C(=O)C(C(N)=O)=C(O)[C@@H](N(C)C)[C@@H]3[C@@H](O)[C@@H]21.O [DOXYCYCLINE] | 31 | 34 | 38 | 37 | 30 | 35 | 35
